For data set [1], the system named is extracellular signal-regulated kinase 1/2 signalling. Further details: method as in Ferreira et al. [2017]. The note with it: systemic administration in heart-targeted nanoparticles; ref Ferreira et al. [2017]; cited from earlier work.
Data set [2] deals with GATA4–NKX2-5 transcriptional synergy. Further details: method as in Välimäki et al. [2017]. As to conditions: ref Välimäki et al. [2017]; cited from earlier work.
For data set [3], the system named is primary neonatal rat ventricular cardiomyocytes (NRVCs). The data set is described as follows: MTT assay in NRVCs. It counts as cell-based. As to conditions: 24 h. The method, then: (§1) The cells were exposed to the test compounds for 24 h and cytotoxicity was quantified with MTT and LDH assays as described previously (Talman et al. [2011]). For the determination of cell membrane integrity, 50 µl of medium from each well was transferred onto a new 96-well plate followed by addition of 50 µl of substrate solution containing 1.3 mM β-nicotinamide adenine dinucleotide, 660 µM iodonitrotetrazolium, 54 mM L(+)-lactic acid, 280 µM phenazine methosulphate and 0.2 M Tris–HCl (pH 8.0). After a 30-min incubation, the reaction was stopped by adding 50 µl of 1 M acetic acid to each well and absorbance was measured at 490 nm using Victor2 plate reader (PerkinElmer, Turku, Finland). Spontaneous LDH release was measured from untreated cells, maximal LDH release from cells lysed with 0.9% Triton X-100 and background absorbance was measured from wells without cells. After background extraction, cytotoxicity was calculated as follows: cytotoxicity (%) = [(sample − spontaneous LDH release)/(maximal LDH release − spontaneous LDH release)] × 100. For quantification of metabolic activity, 3-(4,5-dimethylthiazol-2-yl)-2,5-diphenyltetrazolium bromide (MTT) was added to the cells at a final concentration of 0.5 mg/ml followed by 2 h incubation in cell culture conditions. […] Absorbance was measured at 550 nm and absorbance at 650 nm was subtracted as background. […]
Background: Tetrazolium dyes change colour on reduction, which living cells bring about.

For data set [4], the system named is MEFs. The data set is described as follows: MTT assay in MEFs. The note with it: 24 h, 30 µM, not statistically significant. The format is cell-based, mouse. On the procedure:
as §1

Data on three compounds can be found in publication PMC6132687, “Stem cells are the most sensitive screening tool to identify toxicity of GATA4-targeted novel small-molecule compounds” (Archives of Toxicology, 2018).

As to `CCN(CC)c1ccc(NC(=O)c2c(-c3ccccc3)noc2C)cc1` [3i-1000], the “pro-hypertrophic ERK1/2 signalling in the hypoxic endocardial layer of the left ventricle” value in data set [1] is “inhibits”. In data set [2], the “GATA4-induced synergistic transactivation of a promoter sequence containing NKX2-5 binding sites” value was “inhibits”. As to `CCN(CC)c1ccc(NC(=O)c2c(C)noc2-c2cc(C)on2)cc1` [3i-1047], the “increase in metabolic activity in NRVCs” value in data set [3] is given as “not observed”. Take `CCC(=O)N(Cc1ccc(N(CC)CC)cc1)c1c(-c2ccccc2)noc1C` [3i-1120]: the “toxicity in MEFs” value in data set [4] was “modest toxicity”.
